From US20120004282A1, “RNA Interference Mediated Inhibition of the Intercellular Adhesion Molecule 1 (ICAM-1) Gene Expression Using Short Interfering Nucleic Acid (siNA)” (Merck Sharp & Dohme Corp,, priority 2009, published 2012)
[invAb] = inverted abasic unit; m = 2'-O-methyl; r = 2'-OH (RNA); f = 2'-fluoro

Legend:
[1] = tested on: human ICAM-2 mRNA transcript; test: ICAM-2 mRNA specificity screen in human cells (Taqman RT-PCR); type: cell-based; details: mean ± S.D., three independent experiments
Procedure: Calu-1 (human; ATCC cat# HTB-54): Cells were cultured at 37° C. in the presence of 5% CO2 and grown in McCoy's 5a medium supplemented with fetal bovine serum at a final concentration of 10% and 100 μg/mL of streptomycin and 100 U/mL penicillin.
Calu-1 cells were plated in all wells of a tissue-culture treated, 96-well plate at final counts of 5,000 cells/well in 100 μL of appropriate culture media. Cells were cultured for 24 hours after plating at 37° C. in the presence of 5% CO2.
After 24 hours, complexes containing siNA and RNAiMax were created as follows. A solution of RNAiMax diluted 33-fold in OPTI-MEM was prepared. In parallel, solutions of the siNAs for testing were prepared to a final concentration of 120 nM in OPTI-MEM. After incubation of RNAiMax/OPTI-MEM solution at room temperature for 5 min, an equal volume of the siNA solution and the RNAiMax solution were added together for each of the siNAs. […] This solution was incubated at room temperature for 20 minutes. After incubation, 20 uL of the solution was added to each of the relevant wells. The final concentration of siNA in each well was 10 nM and the final volume of RNAiMax in each well was 0.3 uL.
A series of probes and primers were used to detect the various mRNA transcripts of the genes of ICAM-1 and ICAM-2 in human cell lines (see Table 2). All the Taqman probes and primers for the experiments here-in described were supplied as pre-validated sets by Applied Biosystems, Inc., (see Table 2). The assays were performed on an ABI 7900 instrument, according to the manufacturer's instructions.
A TaqMan Gene Expression Master Mix (provided in the Cells-to-CT™, Applied Biosystems, Cat # 4399002) was used. The PCR reactions were carried out at 50° C. for 2 min, 95° C. for 20 min followed by 40 cycles at 95° C. for 15 secs and 60° C. for 1 min.
The expression level of the gene of interest and % knock-down was calculated using Comparative Ct method: […]
The non-targeting control siNA was, unless otherwise indicated, chosen as the value against which to calculate the % knock-down, because it is the most relevant control.
The specificity the six siNAs in Table 4 was also assessed. The siNAs were tested at 1 nM concentration to determine the effect of the ICAM-1 siNAs on the mRNA transcript of human ICAM-2.

ICAM-1 mRNA = ICAM-1 mRNA knock-down in transfected Calu-1 cells (Taqman RT-PCR); type: cell-based, human; details: for % KD Human: Calu-1 cells, 10 nM siNA, 24 hrs post-transfection, relative to non-targeting control; for % KD Human / % KD ICAM-1 10 nM / % KD at 10 nM / Max % KD in DRC: mean ± S.D.; for IC50: ICAM-1 mRNA knockdown, 12 concentrations 0.083 fM to 30 nM; for IC50 / % KD at 10 nM / Max % KD in DRC: human cells; for % KD ICAM-1 10 nM / % KD at 10 nM / Max % KD in DRC: ICAM-1 mRNA; for % KD ICAM-1 10 nM: three independent experiments; for % KD at 10 nM: three separate experiments; for Max % KD in DRC: dose response 0.083 fM to 30 nM

## 48722-DC: siNA duplex, ICAM-1 target site 2240 (h); sense B GAcAuAcAAcuGGGAAAuA TTB; antisense UAUuucccAGuuGuAuGucUU (sense GACAUACAACUGGGAAAUATT; antisense UAUUUCCCAGUUGUAUGUCUU; sense: DNA at AGT, 2'-fluoro at CU, [invAb] at 5' end, 3' end, backbone not given here; antisense: sugars from the 5' end rrrfffffmmffmfmfmffmm, backbone not given here)
[1]
  % KD ICAM-2 1 nM: −15 ± 29%
ICAM-1 mRNA
  % KD Human: 92 ± 1%
  IC50: 0.098 ± 0.05 nM
  % KD ICAM-1 10 nM: 92 ± 1%
  % KD at 10 nM: 92 ± 1%
  Max % KD in DRC: 85 ± 1%

## 29286-DC: siNA duplex, ICAM-1 target site 1838 (h); sense B cGGAAGAucAAGAAAuAcA TTB; antisense UGUAuuucuuGAucuuccGUU (sense CGGAAGAUCAAGAAAUACATT; antisense UGUAUUUCUUGAUCUUCCGUU; sense: DNA at AGT, 2'-fluoro at CU, [invAb] at 5' end, 3' end, backbone not given here; antisense: sugars from the 5' end rrrmffffffmmffffffmmm, backbone not given here)
[1]
  % KD ICAM-2 1 nM: −3 ± 14%
ICAM-1 mRNA
  % KD Human: 89 ± 3%
  IC50: 0.433 ± 0.468 nM
  % KD ICAM-1 10 nM: 89 ± 3%
  % KD at 10 nM: 89 ± 3%
  Max % KD in DRC: 81 ± 6%

## 29285-DC: siNA duplex, ICAM-1 target site 537 (h); sense B GGAAcAAccGGAAGGuGuA TTB; antisense UACAccuuccGGuuGuuccUU (sense GGAACAACCGGAAGGUGUATT; antisense UACACCUUCCGGUUGUUCCUU; sense: DNA at AGT, 2'-fluoro at CU, [invAb] at 5' end, 3' end, backbone not given here; antisense: sugars from the 5' end rrrmffffffmmffmffffmm, backbone not given here)
[1]
  % KD ICAM-2 1 nM: 11 ± 7%
ICAM-1 mRNA
  % KD Human: 85 ± 6%
  IC50: 0.394 nM
  % KD ICAM-1 10 nM: 85 ± 6%
  % KD at 10 nM: 85 ± 6%
  Max % KD in DRC: 70 ± 15%

## 29288-DC: siNA duplex, ICAM-1 target site 2046 (h); sense B cAuuGuccucAGucAGAuA TTB; antisense UAUcuGAcuGAGGAcAAuGUU (sense CAUUGUCCUCAGUCAGAUATT; antisense UAUCUGACUGAGGACAAUGUU; sense: DNA at AGT, 2'-fluoro at CU, [invAb] at 5' end, 3' end, backbone not given here; antisense: sugars from the 5' end rrrffmmffmmmmrfmmfmmm, backbone not given here)
[1]
  % KD ICAM-2 1 nM: −9 ± 18%
ICAM-1 mRNA
  % KD Human: 86 ± 3%
  IC50: 0.215 ± 0.129 nM
  % KD ICAM-1 10 nM: 86 ± 3%
  % KD at 10 nM: 86 ± 3%
  Max % KD in DRC: 78 ± 5%

## 29282-DC: siNA duplex, ICAM-1 target site 2113 (h); sense B cGcAucuGAucuGuAGucA TTB; antisense UGAcuAcAGAucAGAuGcGUU (sense CGCAUCUGAUCUGUAGUCATT; antisense UGACUACAGAUCAGAUGCGUU; sense: DNA at AGT, 2'-fluoro at CU, [invAb] at 5' end, 3' end, backbone not given here; antisense: sugars from the 5' end rrrffmfmmmffmmmfmfmmm, backbone not given here)
[1]
  % KD ICAM-2 1 nM: 3 ± 6%
ICAM-1 mRNA
  % KD Human: 95 ± 2%
  IC50: 0.086 ± 0.047 nM
  % KD ICAM-1 10 nM: 95 ± 2%
  % KD at 10 nM: 95 ± 2%
  Max % KD in DRC: 88 ± 4%

## 29284-DC: siNA duplex, ICAM-1 target site 1141 (h); sense B cucAGucAGuGuGAccGcA TTB; antisense UGCGGucAcAcuGAcuGAGUU (sense CUCAGUCAGUGUGACCGCATT; antisense UGCGGUCACACUGACUGAGUU; sense: DNA at AGT, 2'-fluoro at CU, [invAb] at 5' end, 3' end, backbone not given here; antisense: sugars from the 5' end rrrmmffmfmffmmffmmmmm, backbone not given here)
[1]
  % KD ICAM-2 1 nM: 6 ± 11%
ICAM-1 mRNA
  % KD Human: 85 ± 1%
  IC50: 0.281 ± 0.233 nM
  % KD ICAM-1 10 nM: 85 ± 1%
  % KD at 10 nM: 85 ± 1%
  Max % KD in DRC: 73 ± 4%
